Test results: patent US20230140670A1, “FORMULATIONS” (Intellia Therapeutics, Inc., priority 2017, published 2023)

System: TTR
Test: Liver editing in mice by NGS (percent editing)
Type: in vivo, mouse
Settings: CD-1 mice; 0.1 mg per kg; 7 days post dose; FIG. 7F-7G
Protocol: CD-1 female mice, ranging from 6 to 10 weeks of age were used in each study. Animals were weighed and grouped according to body weight for preparing dosing solutions based on group average weight. LNPs were dosed via the lateral tail vein in a volume of 0.2 mL per animal (approximately 10 mL per kilogram body weight). […] Body weight was measured at twenty-four hours post-administration, and animals were euthanized at various time points by exsanguination via cardiac puncture under isoflurane anesthesia. Blood was collected into serum separator tubes or into tubes containing buffered sodium citrate for plasma as described herein. […]
In brief, to quantitatively determine the efficiency of editing at the target location in the genome, genomic DNA was isolated and deep sequencing was utilized to identify the presence of insertions and deletions introduced by gene editing.
PCR primers were designed around the target site (e.g., TTR), and the genomic area of interest was amplified. […] The reads were aligned to the […] after eliminating those having low quality scores. The resulting files containing the reads were mapped to the reference genome (BAM files), where reads that overlapped the target region of interest were selected and the number of wild type reads versus the number of reads which contain an insertion, substitution, or deletion was calculated. […]

CCCCC/C=C\C/C=C\CCCCCCCC(=O)OCC(COC(=O)CCC(OCCCCCCCC)OCCCCCCCC)COC(=O)OCCCN(CC)CC (stereo not shown) [Lipid A, (9Z,12Z)-3-((4,4-bis(octyloxy)butanoyl)oxy)-2-((((3-(diethylamino)propoxy)carbonyl)oxy)methyl) propyl octadeca-9,12-dienoate]
potency (TTR knockdown and liver editing): highest potency
